Reference: article PMC4854315, “Discovery of a novel allosteric inhibitor-binding site in ERK5: comparison with the canonical kinase hinge ATP-binding site” (Acta Crystallographica. Section D, Structural Biology, 2016)

Experiments:
Assay in all cases: Z'-LYTE kinase panel
Assay type in all cases: biochemical
[1] = molecular target: T1, NTRK2 (TRKB) (Homo sapiens, UniProt Q16620)
T1 construct: purchased ThermoFisher (SelectScreen, Z'-LYTE)
Procedure, shortened: (§1)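 Percentage inhibition comes from a one-concentration (10 µM) Z′-LYTE screen run under standard protocol over 225 panel kinases.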

[2] = molecular target: T2, PHKG2 (Homo sapiens, UniProt P15735)
T2 construct: purchased ThermoFisher (SelectScreen, Z'-LYTE)
T2 sequence (P15735 1-406): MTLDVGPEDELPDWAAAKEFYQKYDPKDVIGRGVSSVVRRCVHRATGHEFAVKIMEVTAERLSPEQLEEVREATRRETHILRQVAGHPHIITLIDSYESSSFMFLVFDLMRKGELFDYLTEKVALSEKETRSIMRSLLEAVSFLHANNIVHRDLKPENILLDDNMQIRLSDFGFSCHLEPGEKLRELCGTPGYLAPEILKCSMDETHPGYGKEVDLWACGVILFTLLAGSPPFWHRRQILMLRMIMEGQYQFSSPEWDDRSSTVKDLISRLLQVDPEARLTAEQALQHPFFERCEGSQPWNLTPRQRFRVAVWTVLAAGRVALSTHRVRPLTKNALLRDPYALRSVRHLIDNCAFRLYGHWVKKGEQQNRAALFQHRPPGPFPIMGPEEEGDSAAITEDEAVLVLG
Procedure, shortened: as §1

[3] = molecular target: T3, RET (Homo sapiens, UniProt P07949)
T3 construct: purchased ThermoFisher (SelectScreen, Z'-LYTE)
T3 sequence (P07949 29-1114): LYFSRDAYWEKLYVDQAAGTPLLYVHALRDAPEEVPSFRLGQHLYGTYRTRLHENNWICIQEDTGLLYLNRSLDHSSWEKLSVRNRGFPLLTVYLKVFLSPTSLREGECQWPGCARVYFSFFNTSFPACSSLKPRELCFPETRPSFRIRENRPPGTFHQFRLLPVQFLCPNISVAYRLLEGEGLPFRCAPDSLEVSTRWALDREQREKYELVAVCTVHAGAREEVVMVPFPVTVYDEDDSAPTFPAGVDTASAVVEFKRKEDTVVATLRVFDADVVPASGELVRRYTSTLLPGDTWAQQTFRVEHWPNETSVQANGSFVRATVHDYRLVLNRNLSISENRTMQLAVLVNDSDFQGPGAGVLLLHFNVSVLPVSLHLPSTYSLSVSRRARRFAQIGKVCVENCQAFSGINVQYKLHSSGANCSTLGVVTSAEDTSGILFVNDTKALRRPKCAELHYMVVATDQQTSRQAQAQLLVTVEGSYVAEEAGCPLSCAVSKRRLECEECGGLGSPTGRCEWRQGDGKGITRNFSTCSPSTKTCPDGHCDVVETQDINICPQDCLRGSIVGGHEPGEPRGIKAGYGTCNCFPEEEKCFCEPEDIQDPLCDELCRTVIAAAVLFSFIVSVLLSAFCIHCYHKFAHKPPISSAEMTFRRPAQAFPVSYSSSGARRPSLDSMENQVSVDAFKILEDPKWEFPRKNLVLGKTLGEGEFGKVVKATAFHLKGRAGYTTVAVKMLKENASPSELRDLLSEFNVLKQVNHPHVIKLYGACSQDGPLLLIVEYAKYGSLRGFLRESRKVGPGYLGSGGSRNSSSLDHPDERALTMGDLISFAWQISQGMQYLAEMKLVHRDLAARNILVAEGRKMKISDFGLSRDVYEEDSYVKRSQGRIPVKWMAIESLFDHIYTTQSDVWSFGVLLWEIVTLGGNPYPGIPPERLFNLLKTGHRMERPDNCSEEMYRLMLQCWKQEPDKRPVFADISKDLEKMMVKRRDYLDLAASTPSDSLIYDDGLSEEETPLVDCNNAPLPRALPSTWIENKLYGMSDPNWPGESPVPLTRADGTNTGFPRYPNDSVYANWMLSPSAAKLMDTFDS
Procedure, shortened: as §1

[4] = molecular target: T4, MAP4K2 (GCK) (Homo sapiens, UniProt Q12851)
T4 construct: purchased ThermoFisher (SelectScreen, Z'-LYTE)
T4 sequence (Q12851 1-820): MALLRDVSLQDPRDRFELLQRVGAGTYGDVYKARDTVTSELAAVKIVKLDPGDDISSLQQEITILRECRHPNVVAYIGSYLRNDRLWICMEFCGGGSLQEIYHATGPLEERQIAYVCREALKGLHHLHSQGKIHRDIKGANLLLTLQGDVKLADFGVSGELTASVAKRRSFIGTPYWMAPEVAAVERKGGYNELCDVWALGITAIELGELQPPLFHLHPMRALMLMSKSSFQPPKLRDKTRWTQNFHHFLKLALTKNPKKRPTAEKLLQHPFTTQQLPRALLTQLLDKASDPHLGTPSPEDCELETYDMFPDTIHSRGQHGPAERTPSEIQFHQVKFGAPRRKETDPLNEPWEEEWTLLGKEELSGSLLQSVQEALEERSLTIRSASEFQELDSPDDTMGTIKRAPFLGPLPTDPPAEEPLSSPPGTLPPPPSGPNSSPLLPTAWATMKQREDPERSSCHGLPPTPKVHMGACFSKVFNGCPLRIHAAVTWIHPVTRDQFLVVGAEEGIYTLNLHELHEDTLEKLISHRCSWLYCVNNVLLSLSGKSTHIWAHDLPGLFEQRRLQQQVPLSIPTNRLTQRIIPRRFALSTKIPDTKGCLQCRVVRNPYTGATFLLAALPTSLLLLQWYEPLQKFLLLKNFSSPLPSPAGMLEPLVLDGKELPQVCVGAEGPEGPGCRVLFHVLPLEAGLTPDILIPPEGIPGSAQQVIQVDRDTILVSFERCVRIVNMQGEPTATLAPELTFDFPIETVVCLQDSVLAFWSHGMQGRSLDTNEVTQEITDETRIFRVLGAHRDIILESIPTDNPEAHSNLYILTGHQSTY
Procedure, shortened: as §1

[5] = molecular target: T5, PRKCN (PKD3) (Homo sapiens, UniProt O94806)
T5 construct: purchased ThermoFisher (SelectScreen, Z'-LYTE)
T5 sequence (O94806 1-890): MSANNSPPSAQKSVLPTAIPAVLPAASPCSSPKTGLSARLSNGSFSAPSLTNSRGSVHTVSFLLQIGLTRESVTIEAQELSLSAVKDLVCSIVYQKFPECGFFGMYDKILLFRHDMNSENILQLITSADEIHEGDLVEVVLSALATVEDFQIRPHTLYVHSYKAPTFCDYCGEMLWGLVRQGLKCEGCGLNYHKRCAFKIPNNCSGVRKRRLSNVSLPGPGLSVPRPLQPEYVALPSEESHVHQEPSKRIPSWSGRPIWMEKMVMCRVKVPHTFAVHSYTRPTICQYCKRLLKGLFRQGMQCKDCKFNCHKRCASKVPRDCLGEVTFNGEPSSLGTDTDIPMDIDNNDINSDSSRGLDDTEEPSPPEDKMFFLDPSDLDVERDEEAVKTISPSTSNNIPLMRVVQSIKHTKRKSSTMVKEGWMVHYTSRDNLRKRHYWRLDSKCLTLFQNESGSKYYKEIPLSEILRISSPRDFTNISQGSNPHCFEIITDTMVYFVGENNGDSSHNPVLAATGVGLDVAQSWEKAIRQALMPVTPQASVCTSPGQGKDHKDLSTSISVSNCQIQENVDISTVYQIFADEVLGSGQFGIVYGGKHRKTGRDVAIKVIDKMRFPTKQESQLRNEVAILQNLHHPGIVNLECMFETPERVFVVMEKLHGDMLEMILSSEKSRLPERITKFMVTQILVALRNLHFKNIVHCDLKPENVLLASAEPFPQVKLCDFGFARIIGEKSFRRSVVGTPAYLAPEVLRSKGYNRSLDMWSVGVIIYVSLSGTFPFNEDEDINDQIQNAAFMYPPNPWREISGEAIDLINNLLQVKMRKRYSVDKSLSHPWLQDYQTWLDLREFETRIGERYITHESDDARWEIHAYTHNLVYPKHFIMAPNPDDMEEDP
Procedure, shortened: as §1

[6] = molecular target: T6, IRAK4 (Homo sapiens, UniProt Q9NWZ3)
T6 construct: purchased ThermoFisher (SelectScreen, Z'-LYTE)
T6 sequence (Q9NWZ3 1-460): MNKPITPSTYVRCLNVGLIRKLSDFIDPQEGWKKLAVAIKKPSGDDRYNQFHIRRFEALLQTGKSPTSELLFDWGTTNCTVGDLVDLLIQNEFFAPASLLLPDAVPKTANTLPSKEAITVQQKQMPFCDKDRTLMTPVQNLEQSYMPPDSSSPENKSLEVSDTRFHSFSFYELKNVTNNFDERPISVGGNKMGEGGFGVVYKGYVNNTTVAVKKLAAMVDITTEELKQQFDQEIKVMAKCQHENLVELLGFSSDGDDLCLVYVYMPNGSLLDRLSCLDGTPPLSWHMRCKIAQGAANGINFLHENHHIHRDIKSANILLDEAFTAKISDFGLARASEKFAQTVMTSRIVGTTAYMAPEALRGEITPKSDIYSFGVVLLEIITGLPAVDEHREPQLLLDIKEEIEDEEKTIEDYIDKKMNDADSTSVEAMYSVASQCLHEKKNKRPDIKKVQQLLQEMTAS
Procedure, shortened: as §1

[7] = molecular target: T7, MAP3K8 (COT) (Homo sapiens, UniProt P41279); settings: 10 µM compound; ATP 100
T7 construct: purchased ThermoFisher (SelectScreen, Z'-LYTE)
T7 sequence (P41279 whole entry): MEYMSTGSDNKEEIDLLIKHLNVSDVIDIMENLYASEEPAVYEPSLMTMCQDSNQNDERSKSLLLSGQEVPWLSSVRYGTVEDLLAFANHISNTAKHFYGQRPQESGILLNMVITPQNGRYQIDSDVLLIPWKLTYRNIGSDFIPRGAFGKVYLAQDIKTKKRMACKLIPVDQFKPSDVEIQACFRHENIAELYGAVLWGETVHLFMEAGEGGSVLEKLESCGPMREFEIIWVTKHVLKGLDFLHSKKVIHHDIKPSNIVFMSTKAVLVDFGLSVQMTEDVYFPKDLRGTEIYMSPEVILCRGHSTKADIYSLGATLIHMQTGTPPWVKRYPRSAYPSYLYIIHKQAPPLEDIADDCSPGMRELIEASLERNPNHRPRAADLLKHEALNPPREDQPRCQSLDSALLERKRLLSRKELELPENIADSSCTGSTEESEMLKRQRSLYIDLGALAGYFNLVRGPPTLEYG
Procedure, shortened: as §1

[8] = molecular target: T8, JAK1 (Homo sapiens, UniProt P23458)
T8 construct: purchased ThermoFisher (SelectScreen, Z'-LYTE)
T8 sequence (P23458 whole entry): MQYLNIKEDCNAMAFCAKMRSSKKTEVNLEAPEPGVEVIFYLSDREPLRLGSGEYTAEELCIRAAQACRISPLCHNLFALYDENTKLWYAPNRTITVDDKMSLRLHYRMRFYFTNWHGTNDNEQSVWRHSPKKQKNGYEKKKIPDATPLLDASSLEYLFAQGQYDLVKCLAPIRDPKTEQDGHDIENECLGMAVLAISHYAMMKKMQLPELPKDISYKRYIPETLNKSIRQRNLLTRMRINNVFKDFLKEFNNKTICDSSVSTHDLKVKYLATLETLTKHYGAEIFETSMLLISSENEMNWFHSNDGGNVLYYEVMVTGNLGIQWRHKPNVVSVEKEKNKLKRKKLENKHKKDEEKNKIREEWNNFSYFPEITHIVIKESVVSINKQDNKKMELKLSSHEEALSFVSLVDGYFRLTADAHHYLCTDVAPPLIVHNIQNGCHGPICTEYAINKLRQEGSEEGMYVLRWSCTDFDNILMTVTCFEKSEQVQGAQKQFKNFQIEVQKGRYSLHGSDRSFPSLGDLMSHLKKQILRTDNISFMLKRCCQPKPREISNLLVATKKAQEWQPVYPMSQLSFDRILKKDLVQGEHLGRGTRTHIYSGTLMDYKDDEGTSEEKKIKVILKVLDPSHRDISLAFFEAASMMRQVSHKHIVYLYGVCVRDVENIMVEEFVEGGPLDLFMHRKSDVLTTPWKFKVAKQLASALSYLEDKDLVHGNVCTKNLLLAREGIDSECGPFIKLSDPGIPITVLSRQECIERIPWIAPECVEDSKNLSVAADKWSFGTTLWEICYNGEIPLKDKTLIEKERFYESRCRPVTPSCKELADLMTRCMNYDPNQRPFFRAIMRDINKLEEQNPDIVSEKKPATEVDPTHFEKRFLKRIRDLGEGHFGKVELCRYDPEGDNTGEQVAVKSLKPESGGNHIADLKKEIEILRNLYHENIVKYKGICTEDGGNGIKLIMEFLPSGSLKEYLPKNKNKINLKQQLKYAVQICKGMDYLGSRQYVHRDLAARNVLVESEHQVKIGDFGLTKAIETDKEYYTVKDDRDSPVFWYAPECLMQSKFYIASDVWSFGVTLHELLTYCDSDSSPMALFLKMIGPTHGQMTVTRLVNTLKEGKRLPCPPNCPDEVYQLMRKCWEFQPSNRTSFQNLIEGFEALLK
Procedure, shortened: as §1

T1 sequence (Q16620 32-822): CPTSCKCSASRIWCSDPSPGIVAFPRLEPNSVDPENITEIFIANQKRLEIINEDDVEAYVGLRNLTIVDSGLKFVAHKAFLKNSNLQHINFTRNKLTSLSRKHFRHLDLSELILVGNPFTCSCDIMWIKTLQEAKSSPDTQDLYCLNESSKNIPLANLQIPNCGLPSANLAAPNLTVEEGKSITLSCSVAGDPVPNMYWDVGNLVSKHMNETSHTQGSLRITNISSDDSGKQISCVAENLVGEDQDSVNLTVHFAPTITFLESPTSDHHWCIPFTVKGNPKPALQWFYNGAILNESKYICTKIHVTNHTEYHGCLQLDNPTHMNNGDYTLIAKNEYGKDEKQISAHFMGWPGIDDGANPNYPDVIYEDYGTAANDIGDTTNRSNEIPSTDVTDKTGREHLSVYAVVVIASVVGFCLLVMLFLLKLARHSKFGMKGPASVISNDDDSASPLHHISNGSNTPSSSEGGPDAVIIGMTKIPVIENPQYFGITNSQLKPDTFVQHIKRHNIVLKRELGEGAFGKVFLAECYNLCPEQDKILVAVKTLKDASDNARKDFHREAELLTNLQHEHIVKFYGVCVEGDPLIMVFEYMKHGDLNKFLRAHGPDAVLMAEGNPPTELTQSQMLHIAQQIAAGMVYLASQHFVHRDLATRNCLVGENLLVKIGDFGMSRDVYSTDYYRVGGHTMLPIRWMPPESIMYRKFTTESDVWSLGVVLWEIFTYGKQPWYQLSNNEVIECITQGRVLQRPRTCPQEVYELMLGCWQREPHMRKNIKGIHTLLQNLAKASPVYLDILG

Cc1ncc(-c2nc(Nc3ccc(C(=O)NCCN4CCCCC4)cc3)ncc2F)n1C(C)C [Compound 3]
inhibition at 10 µM [1]: 87%
inhibition at 10 µM [2]: 79%
inhibition at 10 µM [3]: 95%
inhibition at 10 µM [4]: 77%
inhibition at 10 µM [5]: 87%
inhibition at 10 µM [6]: 71%
inhibition at 10 µM [7]: 89%
inhibition at 10 µM [8]: 101%

Cc1cc(Nc2nc(N)nn2C(=O)NC(C)C)ccc1Cl [Compound 5]
inhibition at 10 µM [1]: 29%
inhibition at 10 µM [2]: -2.57%
inhibition at 10 µM [3]: 44%
inhibition at 10 µM [4]: 50%
inhibition at 10 µM [5]: 11%
inhibition at 10 µM [6]: -2.32%
inhibition at 10 µM [7]: -2.72%
inhibition at 10 µM [8]: 60%

XMD8-92 [Compound 2, reference compound]
NTRK2 (TRKB) % Inhibition ([1]; 10 µM compound, ATP Km app): 81%
PHKG2 % Inhibition ([2]; 10 µM compound, ATP Km app): 19%
RET % Inhibition ([3]; 10 µM compound, ATP Km app): 40%
MAP4K2 (GCK) % Inhibition ([4]; 10 µM compound, ATP Km app): 46%
PRKCN (PKD3) % Inhibition ([5]; 10 µM compound, ATP Km app): 18%
IRAK4 % Inhibition ([6]; 10 µM compound, ATP Km app): -9%
MAP3K8 (COT) % Inhibition [7]: 3.36%
JAK1 % Inhibition ([8]; 10 µM compound, ATP Km app): 32%
